Results from patent US11278524B2, “Formulations and methods for the treatment of cancers” (Stemirna (Shanghai) Biotechnology Co. LTED., priority 2018, dated 2022).

Assays:
LNCaP AI-tumors = assay: Therapy of mice bearing LNCaP androgen-independent (AI) tumors; type: in vivo
[1] = test system: LAPC9 androgen-independent tumors; assay: Therapy of LAPC9 androgen-independent tumors; type: in vivo, mice
Procedure: (§1) The xenograft models—LAPC9, LAPC4, LNCaP, and VCaP were serially passaged in castrated male NOD/SCID-γ mice (NSG; for LNCaP or NOD/SCID for the other models). The tumors were then harvested for western blot analysis for androgen receptor, androgen receptor-target molecules, cancer stem cell (CSC) and castration resistance (CR) markers. PC3 cells were used as a negative control for androgen receptors. 60 μg of whole cell lysate was loaded in each lane. GADPH was run as the loading controls (top and bottom panels).
To determine the sensitivity of LAPC9 androgen-independent tumors to enzalutamide, therapy experiments were performed as described for the LNCaP primary AI tumors (FIG. 3). […] To determine whether blocking alternate pathways regulated by any of these high expressing proteins, in the Enzalutamide resistant LAPC9 androgen-independent tumors, affects tumor burden, therapy experiments were performed with the Bromodomain and Extra-Terminal protein (a upstream regulator of Myc transcription) inhibitor, JQ1. The integrin α2β1 inhibitor, Compound 15 (142,143) was used as a positive control.

[2] = test system: LAPC4 androgen-independent tumors; assay: Therapy of castrated mice bearing LAPC4 androgen-independent tumors; type: in vivo
Procedure: as §1
To determine whether targeting cyt-AR in these tumors would be effective in reducing tumor burden, castrated mice bearing LAPC4 androgen-independent tumors were administered enzalutamide as indicated (FIG. 5B), and the tumor volume measured.
However, starting from ˜6.5-7 weeks, tumors resumed growth, indicative of resistance to enzalutamide. […] This opens the possibility of employing combinatorial approaches that target androgen receptor (Enzalutamide) together molecules such as Bcl2 (Venetoclax).

[3] = enzalutamide-resistant LAPC9 AI tumors
[4] = enzalutamide-resistant LAPC4 tumors, western blot

## CC#C[C@]1(O)CC[C@H]2[C@@H]3CCC4=CC(=O)CCC4=C3[C@@H](c3ccc(N(C)C)cc3)C[C@@]21C [mifepristone]
LNCaP AI-tumors; combination with enzalutamide given simultaneously, LNCaP primary AI tumors, P<0.0001, χ2 test for venetoclax combination
  emergence (incidence) of LNCaP secondary castration resistant prostate cancer: without reducing incidence
LNCaP AI-tumors; combination with enzalutamide, LNCaP primary AI tumors
  tumor growth: inhibited tumor growth

## Cc1sc2c(c1C)C(c1ccc(Cl)cc1)=N[C@@H](CC(=O)OC(C)(C)C)c1nnc(C)n1-2 [JQ1, (S)-tert-butyl 2-(4-(4-chlorophenyl)-2,3,9-trimethyl-6H-thieno[3,2-f][1,2,4]triazolo[4,3-a][1,4]diazepin-6-yl)acetate]
[1]; [3]
  tumor growth: significantly inhibited tumor growth
  tumor incidence: not tumor incidence

## CNC(=O)c1ccc(N2C(=S)N(c3ccc(C#N)c(C(F)(F)F)c3)C(=O)C2(C)C)cc1F [Enzalutamide, 4-(3-(4-Cyano-3-(trifluoromethyl)phenyl)-5,5-dimethyl-4-oxo-2-thioxoimidazolidin-1-yl)-2-fluoro-N-methylbenzamide]
LNCaP AI-tumors; among CSC and castration resistance markers, western blot
  Bcl-2 expression in response to enzalutamide: most prominent upregulation
LNCaP AI-tumors; enzalutamide i.p.
  duration of growth suppression: 6.5 weeks
  time at which no further response to enzalutamide was observed (emergence of enzalutamide-resistant tumors): about 7 weeks
LNCaP AI-tumors; enzalutamide i.p., vehicle corn oil
  growth of androgen-independent LNCaP tumors: suppressed growth
LNCaP AI-tumors; enzalutamide-resistant secondary LNCaP CR tumors, western blot
  FKBP5 expression: decreased
LNCaP AI-tumors; enzalutamide-resistant secondary LNCaP CR tumors, western blot and IHC
  PSA expression: decreased
[1]; both vehicle and treatment groups, western blot
  FKBP5 levels: greatly diminished
[1]; enzalutamide-treated tumors, western blot
  levels of integrin α2, c-Myc, N-cadherin, Bcl-2 and p-ERK1/2: continued to express high levels
[1]; primary AI tumors, vehicle corn oil
  response of tumors to enzalutamide (tumor volume): refractory
[1]; western blot and IHC of endpoint tumors
  expression of androgen receptors and PSA: no expression
[2]; [4]
  E-cadherin expression: slight increases
  levels of GR, N-cadherin, Bcl-2 and integrin α2: continued to express high levels
[2]; enzalutamide-resistant tumors, immuno-histochemistry
  androgen receptor localization: still largely in the cytoplasm
[2]; first 2-3 weeks
  tumor growth compared to vehicle (corn oil) control: grew significantly slower
[2]; mouse, in vivo
  time from which tumors resumed growth (resistance to enzalutamide): 6.5-7 weeks
[2]; up to 13 weeks, compared with enzalutamide-resistant LNCaP tumors
  growth of enzalutamide-resistant cyto-AR+ LAPC4 tumors: grew relatively slow
